Data from the NIST ThermoML archive (doi:10.1016/j.jct.2019.03.023).
Values joined by “and” are separate entries in the source; they are usually repeats but may differ in a detail not shown here. Equal values may be shown once.

Experiment: molar heat capacity at constant volume
Conditions: Fluid (supercritical or subcritical phases), Vacuum adiabatic calorimetry

CC(C)O [propan-2-ol]
Conditions	molar heat capacity at constant volume
452.05 K, Mass density=581.06 kg/m3	180.71 J/K/mol
452.1 K, Mass density=581.06 kg/m3	178.12 J/K/mol
452.15 K, Mass density=581.06 kg/m3	174.34 J/K/mol
452.2 K, Mass density=581.06 kg/m3	178.36 J/K/mol
452.25 K, Mass density=581.06 kg/m3	175.9 J/K/mol
463.48 K, Mass density=329.2 kg/m3	270.31 J/K/mol
463.58 K, Mass density=329.2 kg/m3	271.63 J/K/mol
463.68 K, Mass density=329.2 kg/m3	275.36 J/K/mol
463.78 K, Mass density=329.2 kg/m3	270.31 J/K/mol
463.83 K, Mass density=329.2 kg/m3	274.63 J/K/mol
463.97 K, Mass density=329.2 kg/m3	279.44 J/K/mol
464.18 K, Mass density=329.2 kg/m3	278.72 J/K/mol and 277.04 J/K/mol
464.27 K, Mass density=329.2 kg/m3	280.16 J/K/mol
464.42 K, Mass density=329.2 kg/m3	278.24 J/K/mol
464.47 K, Mass density=329.2 kg/m3	275.54 J/K/mol
464.97 K, Mass density=329.2 kg/m3	277.34 J/K/mol
465.27 K, Mass density=329.2 kg/m3	272.77 J/K/mol
465.34 K, Mass density=329.2 kg/m3	278.54 J/K/mol
482.51 K, Mass density=329.2 kg/m3	288.1 J/K/mol
482.6 K, Mass density=329.2 kg/m3	289.9 J/K/mol
482.7 K, Mass density=329.2 kg/m3	288.46 J/K/mol
482.8 K, Mass density=329.2 kg/m3	287.73 J/K/mol
482.89 K, Mass density=329.2 kg/m3	288.34 J/K/mol
482.99 K, Mass density=329.2 kg/m3	292 J/K/mol
483.09 K, Mass density=329.2 kg/m3	287.19 J/K/mol
483.18 K, Mass density=329.2 kg/m3	291.64 J/K/mol
491.97 K, Mass density=274 kg/m3	317.84 J/K/mol
492.07 K, Mass density=274 kg/m3	313.28 J/K/mol
492.16 K, Mass density=274 kg/m3	317.9 J/K/mol
492.25 K, Mass density=274 kg/m3	317.9 J/K/mol
492.35 K, Mass density=274 kg/m3	322.53 J/K/mol
492.44 K, Mass density=274 kg/m3	322.53 J/K/mol
492.54 K, Mass density=274 kg/m3	322.59 J/K/mol
492.63 K, Mass density=274 kg/m3	322.59 J/K/mol
492.73 K, Mass density=274 kg/m3	318.08 J/K/mol
493.86 K, Mass density=255.8 kg/m3	333.29 J/K/mol
493.95 K, Mass density=255.8 kg/m3	333.29 J/K/mol
494.05 K, Mass density=255.8 kg/m3	323.49 J/K/mol
494.14 K, Mass density=255.8 kg/m3	338.27 J/K/mol
494.24 K, Mass density=255.8 kg/m3	333.41 J/K/mol
494.33 K, Mass density=255.8 kg/m3	323.61 J/K/mol
494.43 K, Mass density=255.8 kg/m3	333.47 J/K/mol
494.52 K, Mass density=255.8 kg/m3	328.54 J/K/mol
494.52 K, Mass density=324.5 kg/m3	307.87 J/K/mol
494.62 K, Mass density=324.5 kg/m3	303.36 J/K/mol
494.71 K, Mass density=324.5 kg/m3	303.18 J/K/mol
494.8 K, Mass density=324.5 kg/m3	309.79 J/K/mol
494.99 K, Mass density=324.5 kg/m3	306.6 J/K/mol
495.09 K, Mass density=324.5 kg/m3	314.12 J/K/mol
495.27 K, Mass density=324.5 kg/m3	308.05 J/K/mol
495.37 K, Mass density=324.5 kg/m3	311.05 J/K/mol
495.46 K, Mass density=324.5 kg/m3	303.36 J/K/mol
495.56 K, Mass density=324.5 kg/m3	314.96 J/K/mol
499.41 K, Mass density=274 kg/m3	329.44 J/K/mol
499.5 K, Mass density=274 kg/m3	338.64 J/K/mol
499.6 K, Mass density=274 kg/m3	334.07 J/K/mol
499.69 K, Mass density=274 kg/m3	338.7 J/K/mol
499.79 K, Mass density=274 kg/m3	334.13 J/K/mol
499.88 K, Mass density=274 kg/m3	338.76 J/K/mol
499.97 K, Mass density=274 kg/m3	338.82 J/K/mol
500.07 K, Mass density=274 kg/m3	338.82 J/K/mol
500.16 K, Mass density=274 kg/m3	334.25 J/K/mol
500.25 K, Mass density=255.8 kg/m3	348.07 J/K/mol
500.35 K, Mass density=255.8 kg/m3	343.74 J/K/mol
500.44 K, Mass density=255.8 kg/m3	348.67 J/K/mol
500.54 K, Mass density=255.8 kg/m3	348.73 J/K/mol
500.63 K, Mass density=255.8 kg/m3	345.79 J/K/mol
500.72 K, Mass density=255.8 kg/m3	348.79 J/K/mol
500.82 K, Mass density=255.8 kg/m3	338.94 J/K/mol
500.85 K, Mass density=329.2 kg/m3	318.14 J/K/mol
500.91 K, Mass density=255.8 kg/m3	346.15 J/K/mol
500.95 K, Mass density=329.2 kg/m3	311.35 J/K/mol
501 K, Mass density=281.9 kg/m3	333.77 J/K/mol
501.04 K, Mass density=329.2 kg/m3	310.87 J/K/mol
501.09 K, Mass density=281.9 kg/m3	334.85 J/K/mol
501.1 K, Mass density=281.9 kg/m3	338.09 J/K/mol
501.14 K, Mass density=329.2 kg/m3	313.94 J/K/mol
501.23 K, Mass density=329.2 kg/m3	314.06 J/K/mol
501.29 K, Mass density=281.9 kg/m3	337.01 J/K/mol
501.33 K, Mass density=329.2 kg/m3	310.75 J/K/mol
501.38 K, Mass density=281.9 kg/m3	335.39 J/K/mol
501.42 K, Mass density=329.2 kg/m3	316.76 J/K/mol
501.47 K, Mass density=281.9 kg/m3	337.49 J/K/mol
501.53 K, Mass density=329.2 kg/m3	318.08 J/K/mol
501.57 K, Mass density=281.9 kg/m3	336.95 J/K/mol
501.62 K, Mass density=329.2 kg/m3	320.49 J/K/mol
501.66 K, Mass density=281.9 kg/m3	338.58 J/K/mol
501.75 K, Mass density=281.9 kg/m3	331 J/K/mol
501.81 K, Mass density=329.2 kg/m3	316.64 J/K/mol
501.85 K, Mass density=343.1 kg/m3	312.61 J/K/mol
501.9 K, Mass density=329.2 kg/m3	317.06 J/K/mol
501.94 K, Mass density=266.3 kg/m3	345.85 J/K/mol
